Test: stability of the polymorph at elevated temperatures
Type: physicochemical
Conditions: for example in excess of 70° C.

## CC(C)(C)c1nnc([C@H]2O[C@@H](n3cnc4c(Nc5ccc(Cl)cc5F)ncnc43)[C@H](O)[C@@H]2O)o1 [Polymorph II, (2S,3S,4R,5R)-2-(5-tert-butyl-[1,3,4]-oxadiazol-2-yl)-5-[6-(4-chloro-2-fluorophenylamino)-9H-purin-9-yl]-tetrahydrofuran-3,4-diol]
  stability at elevated temperatures: particular stability at elevated temperatures
